This note sets out measurements from patent US4741899A, “Process for arresting the proliferation of organisms that convert axillary secretions to malodorous materials” (Bristol-Myers Company, priority 1983, dated 1988).

Structures can show the parent of a compound that is named as a salt.

In test [1] the test system is axillary organisms (e.g. corynebacteria and staphylococci). Put plainly: In vitro Studies - Summary, judgment of activity against axillary organisms. In kind it is cell-based. Conditions: Staph and Diphth (Axilla). How it is done:
(§1) To test the activity of the compounds employed in the present invention in arresting the proliferation of axillary organisms (e.g. corynebacteria and staphylococci) the following in vitro study was carried out:
(§2) Aqueous solutions (or suspensions) were prepared for each test substance. Serial two-fold dilutions of the above were then made in liquid culture medium. Each tube (10 ml of liquid) in the dilution series was inoculated with 0.2 ml of a 1:500 dilution of 24 hr. culture of bacteria. After 24 hrs. at 35° C., tubes showing turbidity (growth) were noted. All non-turbid dilutions were subcultured to liquid growth medium and incubated an additional 24 hrs. at 35° C. The lowest concentration of substance which yielded no growth upon subculture was noted as the minimum inhibitory (bactericidal) concentration (=MIC).
(§3) The numbers appearing in columns 2 and 3 give the minimum inhibitory concentration in percent (MIC %) for the materials tested i.e. the minimum concentration in percent of the agent tested which will inhibit the proliferation of the test organisms. The entries in the last column are judgments with respect to the activity of the agent tested.

Another test deals with Staph (Axilla). Description: In vitro minimum inhibitory (bactericidal) concentration, Staph (Axilla). Conditions: 24 hrs. at 35° C., subculture further 24 hrs.; liquid culture medium. In kind it is cell-based, staphylococci. How it is done: as §1, §2, §3
For the next test, the system named is Diphth (Axilla). Put plainly: In vitro minimum inhibitory (bactericidal) concentration, Diphth (Axilla). In kind it is cell-based, aerobic diphtheroids (corynebacteria). To be noted: 24 hrs. at 35° C., subculture further 24 hrs.; liquid culture medium. The procedure:
as §1, §2, §3

With `CN1CCC2=C(C1)C(c1ccccc1)c1ccccc12` (stereo not drawn) [Phenindamine tartrate], in test [1], the “Comments (judgment with respect to the activity of the agent tested)” value is listed as “Good Activity”. For the same compound, in the test on Staph (Axilla), the “MIC (%) - cidal, Staph (Axilla)” value stood at 0.04%. Moreover, the “MIC (%) - cidal, Diphth (Axilla)” value with Diphth (Axilla) came out at 0.08%.
`c1ccc2c(CC3=NCCN3)cccc2c1` [Naphazoline HCl]: the “MIC (%) - cidal, Staph (Axilla)” value in the test on Staph (Axilla) stood at 0.31%. Also, the “MIC (%) - cidal, Diphth (Axilla)” value with Diphth (Axilla) came to 0.31%.
`COc1ccc(CN(CCN(C)C)c2ccccn2)cc1` [Pyrilamine maleate]: the “MIC (%) - cidal, Staph (Axilla)” value with Staph (Axilla) is reported as 0.63%. Moreover, the “MIC (%) - cidal, Diphth (Axilla)” value in the test with Diphth (Axilla) is given as 0.63%.
Turning to `CCCCNc1ccc(C(=O)OCCN(C)C)cc1` [Tetracaine HCl], the “MIC (%) - cidal, Staph (Axilla)” value in the test on Staph (Axilla) is 0.08%. In addition, the “MIC (%) - cidal, Diphth (Axilla)” value against Diphth (Axilla) turned out to be 0.08%.
Regarding `Cc1cc(C(C)(C)C)cc(C)c1CC1=NCCN1` [Xylometazoline HCl], in the test with Staph (Axilla), the “MIC (%) - cidal, Staph (Axilla)” value was determined as 0.08%. The “MIC (%) - cidal, Diphth (Axilla)” value against Diphth (Axilla) is 0.04%.
Consider `CN(C)CCN(Cc1ccccc1)c1ccccn1` [Tripelennamine HCl], for which the “MIC (%) - cidal, Staph (Axilla)” value in the test with Staph (Axilla) is recorded as 0.63%. The “MIC (%) - cidal, Diphth (Axilla)” value in the test with Diphth (Axilla) was found to be 0.31%.
In the same order, the values of `CC(CNC1CCCCC1)OC(=O)c1ccccc1` (stereo not drawn) [Hexylcaine HCl] are 0.16% and 0.16%.
